From patent US11708367B2, “Compounds for the treatment of kinase-dependent disorders” (Exelixis, Inc., priority 2018, dated 2023)

Experiments:
Met [1] = target: T1, Met (Homo sapiens (Human), UniProt P08581); assay: Human Met kinase assay (33P radiometric, KinaseProfiler); assay type: biochemical; conditions: 10 μM ATP, read-out: c-Met IC50
Protocol: (§1) Kinase activity and compound inhibition were investigated using the ^33P-Phosphoryl transfer radiometric kinase assay, performed using the KinaseProfiler™ service of Eurofins Pharma Discovery Services UK Limited. Dose-response experiments were performed using nine compound concentrations in a 96-well microtiter plate. For each assay, all compounds were prepared to a 50× final assay concentration (50 μM) in 100% DMSO, then diluted in a half-log series, with the final top concentration at 1 μM. This working stock of the compound was added to the assay well as the first component in the reaction, followed by the remaining components as detailed in the following assay protocols below. The positive control wells (100% kinase activity) contain all components of the reaction including 2% DMSO (control for solvent effects), except the compound of interest. Blank wells contain all components of the reaction, with the reference inhibitor, staurosporine. This reference compound was used to abolish kinase activity and generated the 0% kinase activity base-line. IC50 values were calculated by nonlinear regression analysis using the sigmoidal dose-response (variable slope) curve fit on XLFit version 5.3 (ID Business Solutions).
Human Met (residues R974-S1390 with A1209G and V1290L, 3.4 nM) was incubated with 8 mM MOPS pH 7.0, 0.2 mM EDTA, 250 µM KKKGQEEEYVFIE (SEQ ID NO. 45), 1 mM sodium orthovanadate, 5 mM […], 10 mM magnesium acetate, and 10 μM [γ-33P-ATP]. The reaction was initiated by the addition of the Mg/ATP mix. After incubation for 40 minutes at room temperature, the reaction was stopped by the addition of phosphoric acid to a concentration of 0.5%. A reaction aliquot of 10 μL was then spotted onto a P30 filtermat and washed four times for 4 minutes in 0.425% phosphoric acid and once in methanol prior to drying and scintillation counting. Incorporated 33P was measured using the Wallac Microbeta scintillation counter (Perkin Elmer).

Met [2] = target: T1, Met; assay: Met autophosphorylation ELISA in PC-3 cells; assay type: cell-based; conditions: cellular, HGF-stimulated, phospho-Met ELISA, read-out: c-Met IC50
In short: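 Serum-starved PC-3 cells treated 1 h with compound (8-point series, 0.3% DMSO), then stimulated 10 min with 100 ng/mL HGF. Phospho-Met (panTyr) quantified in lysates by sandwich ELISA; IC50 from 4-parameter logistic fit against DMSO and reference-inhibitor controls.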
Target sequence in this assay (P08581 25-1390): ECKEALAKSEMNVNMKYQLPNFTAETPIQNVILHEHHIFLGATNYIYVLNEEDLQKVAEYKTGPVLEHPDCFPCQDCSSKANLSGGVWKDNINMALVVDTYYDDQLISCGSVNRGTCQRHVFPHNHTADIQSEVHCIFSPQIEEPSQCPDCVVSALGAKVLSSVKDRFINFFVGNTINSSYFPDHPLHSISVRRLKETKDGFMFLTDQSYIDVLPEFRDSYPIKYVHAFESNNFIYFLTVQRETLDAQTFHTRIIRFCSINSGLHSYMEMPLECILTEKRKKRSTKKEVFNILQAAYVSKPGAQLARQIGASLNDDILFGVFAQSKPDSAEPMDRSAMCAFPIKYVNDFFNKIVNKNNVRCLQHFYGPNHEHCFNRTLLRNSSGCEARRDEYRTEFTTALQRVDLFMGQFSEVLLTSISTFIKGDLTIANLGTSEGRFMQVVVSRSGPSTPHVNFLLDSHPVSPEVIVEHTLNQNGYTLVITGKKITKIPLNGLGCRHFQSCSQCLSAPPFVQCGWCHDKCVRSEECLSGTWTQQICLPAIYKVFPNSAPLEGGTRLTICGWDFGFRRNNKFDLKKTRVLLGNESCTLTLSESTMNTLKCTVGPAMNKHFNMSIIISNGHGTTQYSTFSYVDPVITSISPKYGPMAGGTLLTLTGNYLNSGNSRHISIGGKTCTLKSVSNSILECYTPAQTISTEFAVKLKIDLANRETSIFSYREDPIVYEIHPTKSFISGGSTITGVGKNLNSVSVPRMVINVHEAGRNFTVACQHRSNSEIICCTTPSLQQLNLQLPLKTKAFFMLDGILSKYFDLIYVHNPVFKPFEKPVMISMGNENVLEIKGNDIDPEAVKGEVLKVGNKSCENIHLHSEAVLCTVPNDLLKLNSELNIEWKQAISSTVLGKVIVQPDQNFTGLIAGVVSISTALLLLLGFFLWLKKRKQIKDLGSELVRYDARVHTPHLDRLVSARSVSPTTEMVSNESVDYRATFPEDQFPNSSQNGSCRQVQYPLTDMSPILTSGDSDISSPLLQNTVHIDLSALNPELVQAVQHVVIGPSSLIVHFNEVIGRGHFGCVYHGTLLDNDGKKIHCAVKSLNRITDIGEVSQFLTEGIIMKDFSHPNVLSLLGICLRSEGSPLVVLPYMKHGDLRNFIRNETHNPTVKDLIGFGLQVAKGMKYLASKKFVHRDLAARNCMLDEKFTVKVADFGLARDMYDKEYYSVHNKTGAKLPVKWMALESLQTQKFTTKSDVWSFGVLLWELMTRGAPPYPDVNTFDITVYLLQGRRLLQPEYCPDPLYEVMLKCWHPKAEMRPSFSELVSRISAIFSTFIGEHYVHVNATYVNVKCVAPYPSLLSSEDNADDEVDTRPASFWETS

Mer [3] = target: T2, Mer (Homo sapiens (Human), UniProt Q12866); assay: Human Mer kinase assay (33P radiometric, KinaseProfiler); assay type: biochemical; conditions: 10 μM ATP
Protocol: as §1
Target sequence in this assay (Q12866 557-882): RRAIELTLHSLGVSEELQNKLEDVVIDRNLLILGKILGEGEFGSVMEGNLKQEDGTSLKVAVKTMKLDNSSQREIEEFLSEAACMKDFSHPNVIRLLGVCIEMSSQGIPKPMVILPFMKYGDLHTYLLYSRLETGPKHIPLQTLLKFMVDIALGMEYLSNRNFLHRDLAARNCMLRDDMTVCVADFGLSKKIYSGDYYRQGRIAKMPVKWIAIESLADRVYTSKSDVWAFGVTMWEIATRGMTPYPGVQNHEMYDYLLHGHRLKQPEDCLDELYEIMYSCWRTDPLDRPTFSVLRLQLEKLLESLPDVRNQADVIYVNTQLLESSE
Human Mer (residues R557-E882 with H628Q and R794A, 0.7 nM) was incubated with 8 mM MOPS pH 7.0, 0.2 mM EDTA, 30 mM NaCl, 250 μM GGMEDIYFEFMGGKKK (SEQ ID NO. 44), 10 mM magnesium acetate, and 10 μM [γ-33P-ATP]. The reaction was initiated by the addition of the Mg/ATP mix. After incubation for 40 minutes at room temperature, the reaction was stopped by the addition of phosphoric acid to a concentration of 0.5%. A reaction aliquot of 10 μL was then spotted onto a P30 filtermat and washed four times for 4 minutes in 0.425% phosphoric acid and once in methanol prior to drying and scintillation counting. Incorporated 33P was measured using the Wallac Microbeta scintillation counter (Perkin Elmer).

Mer [4] = target: T2, Mer; assay: Mer autophosphorylation ELISA in transient transfected 293A cells; assay type: cell-based; conditions: cellular, MERTK-transfected 293A cells, phospho-Mer ELISA
Protocol: 293A cells (Thermo Fisher #R70507) were seeded at 1.5×10^6 cells/well onto 100 mm dish (Greiner #664169), in DMEM (Thermo Fisher #11995-040) containing 10% FBS (Thermo Fisher #26140-079), 1% MEM NEAA (Thermo Fisher #11140-050), 1% GlutaMax (Thermo Fisher #35050-061), and 1% Penicillin Streptomycin (Thermo Fisher #15140-122). 293A cells were incubated at 37° C., 5% CO2 for 24 h and then transfected with 6 μg MERTK DNA (Genecopoeia #EX-Z8208-M02) using TransIT LT1 transfection reagent (Mirus-Bio #MIR2305). After 24 h incubation, the transfected 293A cells were seeded at 1×10^5 cells/well onto 96-well plates (Corning #3904) in DMEM growth medium overnight. Test compounds were serially diluted to produce an 8-point dose curve in fresh serum-free medium to a final concentration of 0.3% DMSO (vehicle) and added to the cells and incubated for 1 h. Cells were then immediately lysed with 150 μL of cold IX lysis buffer [20 mM Tris, 137 mM sodium chloride, 2 mM EDTA, 10% glycerol, 1% NP-40 alternative, 1 mM activated sodium orthovanadate, 1 mM PefaBloc SC (Sigma-Aldrich #11429868001), protease/phosphatase inhibitor tablet (Thermo Fisher #A32959)]. Lysates were clarified by centrifugation and 50 μL/well added into the human phospho-Mer DuoSet IC ELISA (R&D Systems #DYC2579-2). Assay was performed according to manufacturer's instructions and sample phospho-Mer concentrations were extrapolated using human phospho-Mer control (R&D Systems #841793) as a standard. Positive control wells (100% activity) contained DMSO-treated cell lysates. Negative control wells (0% activity) contained reference inhibitor-treated cell lysates. IC50 values were calculated by nonlinear regression analysis using a 4-parameter logistic curve fit in ActivityBase XE (IDBS).
Target sequence in this assay (Q12866 21-999): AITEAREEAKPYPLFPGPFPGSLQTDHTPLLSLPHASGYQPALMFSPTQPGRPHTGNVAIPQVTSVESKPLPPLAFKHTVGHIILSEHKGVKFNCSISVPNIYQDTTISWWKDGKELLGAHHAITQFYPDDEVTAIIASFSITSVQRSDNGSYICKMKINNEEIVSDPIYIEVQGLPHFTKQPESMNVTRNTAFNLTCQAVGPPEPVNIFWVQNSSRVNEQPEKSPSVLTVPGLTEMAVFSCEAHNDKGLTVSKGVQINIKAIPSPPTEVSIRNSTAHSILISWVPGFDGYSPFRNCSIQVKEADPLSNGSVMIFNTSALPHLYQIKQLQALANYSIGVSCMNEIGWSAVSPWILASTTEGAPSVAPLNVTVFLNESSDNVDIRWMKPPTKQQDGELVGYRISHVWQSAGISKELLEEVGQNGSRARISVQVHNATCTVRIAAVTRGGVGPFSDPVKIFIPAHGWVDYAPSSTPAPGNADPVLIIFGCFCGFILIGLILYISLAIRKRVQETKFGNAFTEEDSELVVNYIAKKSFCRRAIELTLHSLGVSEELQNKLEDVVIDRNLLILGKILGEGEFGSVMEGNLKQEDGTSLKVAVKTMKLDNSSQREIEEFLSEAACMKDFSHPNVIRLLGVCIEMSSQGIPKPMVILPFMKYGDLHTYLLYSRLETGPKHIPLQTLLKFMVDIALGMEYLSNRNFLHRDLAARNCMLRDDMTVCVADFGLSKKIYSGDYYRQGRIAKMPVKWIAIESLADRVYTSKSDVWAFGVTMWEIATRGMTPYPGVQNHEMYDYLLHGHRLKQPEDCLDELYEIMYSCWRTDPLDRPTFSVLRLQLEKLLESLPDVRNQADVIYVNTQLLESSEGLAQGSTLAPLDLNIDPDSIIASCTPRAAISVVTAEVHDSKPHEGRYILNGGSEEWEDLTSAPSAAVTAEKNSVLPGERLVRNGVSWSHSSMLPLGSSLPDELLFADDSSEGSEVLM

COc1cc2ncnc(Oc3ccc(NC(=O)C4(C(=O)Nc5ccc(F)cc5)CC4)cc3)c2cc1C(=O)NC[C@H]1CCCN1C(=O)OC(C)(C)C [Compound 119, tert-butyl (2R)-2-[[[4-[4-[[1-[(4-fluoro-phenyl)carbamoyl]cyclo-propane-carbonyl]amino]phenoxy]-7-methoxyquinazoline-6-carbonyl]amino]methyl]pyr-rolidine-1-carboxylate]
IC50 (Met [1]): 100 to 1000 nM
IC50 (Met [2]): > 300 nM
IC50 (Mer [3]): 10 to 100 nM

COc1cc2ncnc(Oc3ccc(NC(=O)C4(C(=O)Nc5ccc(F)cc5)CC4)cc3)c2cc1C(=O)NC1COC1 [Compound 115, 1-N′-(4-fluorophenyl)-1-N-[4-[7-methoxy-6-(oxetan-3-ylcarbamoyl)quinazolin-4-yl]oxyphenyl]cyclopropane-1,1-dicarboxamide]
IC50 (Met [1]): 10 to 100 nM
IC50 (Met [2]): 100 to 300 nM
IC50 (Mer [3]): 10 to 100 nM

COc1cc2ncnc(Oc3ccc(NC(=O)C4(C(=O)Nc5ccc(F)cc5)CC4)cc3)c2cc1C(=O)NC[C@@H]1CCCN1C(=O)OC(C)(C)C [Compound 120, tert-butyl (2S)-2-[[[4-[4-[[1-[(4-fluoro-phenyl)carbamoyl]cyclo-propane-carbonyl]amino]phenoxy]-7-methoxyquinazoline-6-carbonyl]amino]methyl]pyr-rolidine-1-carboxylate]
IC50 (Met [1]): 100 to 1000 nM
IC50 (Met [2]): > 300 nM
IC50 (Mer [3]): 10 to 100 nM

COc1cc2ncnc(Oc3ccc(NC(=O)C4(C(=O)Nc5ccc(F)cc5)CC4)cc3)c2cc1C(N)=O [Compound 117, 1-N-[4-(6-carbamoyl-7-methoxyquinazolin-4-yl)oxyphenyl]-1-N′-(4-fluorophenyl)cyclopropane-1,1-dicarboxamide]
IC50 (Met [1]): 10 to 100 nM
IC50 (Met [2]): 100 to 300 nM
IC50 (Mer [3]): ≤ 10 nM

COc1cc2ncnc(Oc3ccc(NC(=O)C4(C(=O)Nc5ccc(F)cc5)CC4)cc3)c2cn1 [Compound 104, 1-N′-(4-fluorophenyl)-1-N-[4-(7-methoxypyrido[4,3-d]pyrimidin-4-yl)oxy-phenyl]cyclopropane-1,1-dicarboxamide]
IC50 (Met [1]): 10 to 100 nM
IC50 (Met [2]): > 300 nM
IC50 (Mer [3]): 10 to 100 nM

COc1cc2ncnc(Oc3ccc(NC(=O)C4(C(=O)Nc5ccc(F)cc5)CC4)cc3)c2cc1C(=O)NCCN1CCCC1 [Compound 118, 1-N′-(4-fluorophenyl)-1-N-[4-[7-methoxy-6-(2-pyrrolidin-1-ylethyl-carbamoyl)quinazolin-4-yl]oxyphenyl]cyclopropane-1,1-dicarboxamide]
IC50 (Met [1]): 10 to 100 nM
IC50 (Mer [4]): 10 to 100 nM
IC50 (Met [2]): 100 to 300 nM
IC50 (Mer [3]): ≤ 10 nM

COc1nc2c(Oc3ccc(NC(=O)C4(C(=O)Nc5ccc(F)cc5)CC4)cc3Cl)ncnc2cc1OCCCN1CCOCC1 [Compound 66, 1-N′-[3-chloro-4-[6-methoxy-7-(3-morpholin-4-ylpropoxy)pyrido[3,2-d]pyrimidin-4-yl]oxyphenyl]-1-N-(4-fluorophenyl)cyclo-propane-1,1-dicarboxamide]
IC50 (Met [1]): ≤ 10 nM
IC50 (Met [2]): 10 to 100 nM
IC50 (Mer [3]): ≤ 10 nM

COc1cc2ncnc(Oc3ccc(NC(=O)C4(C(=O)Nc5ccc(F)cc5)CC4)cc3F)c2nc1OC [Compound 30, 1-N′-[4-(6,7-dimethoxypyrido[3,2-d]pyrimidin-4-yl)oxy-3-fluorophenyl]-1-N-(4-fluorophenyl)cyclopropane-1,1-dicarboxamide]
IC50 (Met [1]): ≤ 10 nM
IC50 (Mer [4]): ≤ 10 nM
IC50 (Met [2]): 10 to 100 nM
IC50 (Mer [3]): ≤ 10 nM

COc1cc2ncnc(Oc3ccc(NC(=O)C4(C(=O)Nc5ccc(F)cc5)CC4)cc3)c2cc1C(=O)NC[C@@H]1CCCN1 [Compound 122, 1-N′-(4-fluorophenyl)-1-N-[4-[7-methoxy-6-[[(2S)-pyrrolidin-2-yl]methyl-carbamoyl]quinazolin-4-yl]oxyphenyl]cyclopropane-1,1-dicarboxamide]
IC50 (Met [1]): 10 to 100 nM
IC50 (Met [2]): 100 to 300 nM
IC50 (Mer [3]): ≤ 10 nM

COc1cc2ncnc(Oc3ccc(NC(=O)C4(C(=O)Nc5ccc(F)cc5)CC4)cc3)c2nc1OC [Compound 28, 1-N-[4-(6,7-dimethoxy-pyrido[3,2-d]pyrimidin-4-yl)oxyphenyl]-1-N′-(4-fluorophenyl)cyclo-propane-1,1-dicarboxamide]
IC50 (Met [1]): 10 to 100 nM
IC50 (Mer [4]): 10 to 100 nM
IC50 (Met [2]): 100 to 300 nM
IC50 (Mer [3]): ≤ 10 nM

COc1cc2nccc(Oc3ccc(NC(=O)C4(C(=O)Nc5ccc(F)cc5)CC4)cc3Cl)c2nc1OC [Compound 141, 1-N′-[3-chloro-4-[(6,7-dimethoxy-1,5-naphthyridin-4-yl)oxy]phenyl]-1-N-(4-fluorophenyl)cyclo-propane-1,1-dicarboxamide]
IC50 (Met [1]): ≤ 10 nM
IC50 (Met [2]): ≤ 10 nM
IC50 (Mer [3]): ≤ 10 nM

COc1cc2ncnc(Oc3ccc(NC(=O)C4(C(=O)Nc5ccc(F)cc5)CC4)cc3)c2cc1C(=O)NC[C@H]1CCCN1 [Compound 121, 1-N′-(4-fluorophenyl)-1-N-[4-[7-methoxy-6-[[(2R)-pyrrolidin-2-yl]methyl-carbamoyl]quinazolin-4-yl]oxyphenyl]cyclopropane-1,1-dicarboxamide]
IC50 (Met [1]): ≤ 10 nM
IC50 (Met [2]): 100 to 300 nM
IC50 (Mer [3]): ≤ 10 nM

COc1cc2ncnc(Oc3ccc(NC(=O)C4(C(=O)Nc5ccc(F)cc5)CC4)cc3Cl)c2nc1OC [Compound 29, 1-N′-[3-chloro-4-(6,7-dimethoxypyrido[3,2-d]pyrimidin-4-yl)oxyphenyl]-1-N-(4-fluorophenyl)cyclo-propane-1,1-dicarboxamide]
IC50 (Met [1]): ≤ 10 nM
IC50 (Met [2]): 10 to 100 nM
IC50 (Mer [3]): ≤ 10 nM

COc1nc2c(Oc3ccc(NC(=O)C4(C(=O)Nc5ccc(F)cc5)CC4)cc3F)ncnc2cc1OCCCN1CCOCC1 [Compound 67, 1-N′-[3-fluoro-4-[6-methoxy-7-(3-morpholin-4-ylpropoxy)pyrido[3,2-d]pyrimidin-4-yl]oxyphenyl]-1-N-(4-fluorophenyl)cyclo-propane-1,1-dicarboxamide]
IC50 (Met [1]): ≤ 10 nM
IC50 (Mer [4]): ≤ 10 nM
IC50 (Met [2]): 10 to 100 nM
IC50 (Mer [3]): ≤ 10 nM

COc1cc2c(Oc3ccc(NC(=O)C4(C(=O)Nc5ccc(F)cc5)CC4)cc3)ncnc2cn1 [Compound 91, 1-N′-(4-fluorophenyl)-1-N-[4-(6-methoxypyrido[3,4-d]pyrimidin-4-yl)oxyphenyl]cyclopropane-1,1-dicarboxamide]
IC50 (Met [1]): 100 to 1000 nM
IC50 (Met [2]): > 300 nM
IC50 (Mer [3]): 10 to 100 nM

COc1cc2ncnc(Oc3ccc(NC(=O)C4(C(=O)Nc5ccc(F)cc5)CC4)cc3)c2cc1C(=O)NC1CC1 [Compound 116, 1-N-[4-[6-(cyclopropylcarbamoyl)-7-methoxyquinazolin-4-yl]oxyphenyl]-1-N′-(4-fluorophenyl)cyclopropane-1,1-dicarboxamide]
IC50 (Met [1]): 10 to 100 nM
IC50 (Met [2]): 100 to 300 nM
IC50 (Mer [3]): 10 to 100 nM
